How the values were obtained:
[1] = tested on: Hsp70 (HspA1A and HspA1B) in PBMC; experiment: Hsp70 level in PBMC samples of NPC patients treated with arimoclomol (ELISA); type: in vivo, human
Procedure: Whole blood samples were collected in 6 mL EDTA tubes at the clinical study sites and shipped ambient to a central laboratory for sample preparation.
Clinical study samples (n=26) were obtained from individuals with Niemann Pick disease Type C (NPC patients), who were 2 to 18 years of age, diagnosed with NPC, had at least one neurological symptom and had preserved ability to walk with assistance. Patients were maintained on standard therapy during the study. Samples were collected at a first clinical study visit (inclusion) and at a second clinical study visit 6 to 14 months following the first visit.
Plasma was separated from whole blood by centrifugation at room temperature. Blood volume was restored in PBS and PBMCs were isolated by density gradient centrifugation using Histopaque™. Viable PBMC cell count was determined by flow cytometry. Aliquots of 1 mio. PBMC were generated and stored frozen at −70° C.
Hsp70 was quantified using the Human/Mouse/Rat total HSP70 DuoSet® IC ELISA kit (R&D Systems). Prior to analysis of the clinical study samples, the analytical method had been qualified for determination of Hsp70 in human PBMC samples. The Human/Mouse/Rat total HSP70 DuoSet® IC ELISA kit detects the levels of HspA1A and HspA1B with no cross-reactivity of HspA5 and HspA8.
The materials and methods were performed as described in Example 1.
The Hsp70 concentration was measured in homogenates of Peripheral Blood Mononuclear Cells (PBMC). Hsp70 was determined in an observational study (FIGS. 4 and 5), at screening (pretreatment) and then again after 6-14 months (baseline). Patients were treated for 12 months with arimoclomol (Clinicaltrials.gov identifier NCT02612129). Hsp70 levels were analyzed by the Wilcoxon signed rank test for the 12 patients on arimoclomol with baseline and 12 months data point comparing the Hsp70 levels before and after 12 months of treatment.

mutant NPC1 mice = conditions: cited from earlier work
[2] = PBMC homogenates, 12 months of treatment vs baseline, n=12

[O-][n+]1cccc(/C(Cl)=N/OC[C@H](O)CN2CCCCC2)c1 [arimoclomol, N-[2-hydroxy-3-(1-piperidinyl)-propoxy]-pyridine-1-oxide-3-carboximidoyl chloride]
Hsp70 change from baseline, Median [1, 2]: 1175.5 pg/mL | Hsp70 change from baseline, Min-max [1, 2]: 234.7 to 6509.0 pg/mL | Hsp70 change from baseline, mean (SD) [1, 2]: 1815.0 (1754.6) pg/mL | PBMC-level of Hsp70 compared to baseline ([1]; treatment for 12 months): significantly increased | neuronal as well as visceral pathology (mutant NPC1 mice): reversed | size of the lysosomal compartment (mutant NPC1 mice): reduced
